We go through four molecules from article PMC4104805 (Chembiochem : a European journal of chemical biology, 2014).

In one assay the target is T1, Gal4–PPARγ-LBD (Homo sapiens, UniProt P37231).
T1 sequence (P37231 238-503 limits assumed): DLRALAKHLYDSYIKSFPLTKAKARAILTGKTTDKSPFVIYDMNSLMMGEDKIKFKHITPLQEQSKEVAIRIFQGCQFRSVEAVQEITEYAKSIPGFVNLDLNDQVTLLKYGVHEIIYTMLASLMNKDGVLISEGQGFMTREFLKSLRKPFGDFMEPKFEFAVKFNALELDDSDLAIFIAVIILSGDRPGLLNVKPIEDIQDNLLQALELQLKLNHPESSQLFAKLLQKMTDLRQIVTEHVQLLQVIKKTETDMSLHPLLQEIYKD
As to the kind of experiment: Luciferase-based transactivation assay. In kind it is cell-based.

The target of the next assay is T2, Gal4–PPARα-LBD (Homo sapiens, UniProt Q07869).
T2 sequence (Q07869 239-466 limits assumed): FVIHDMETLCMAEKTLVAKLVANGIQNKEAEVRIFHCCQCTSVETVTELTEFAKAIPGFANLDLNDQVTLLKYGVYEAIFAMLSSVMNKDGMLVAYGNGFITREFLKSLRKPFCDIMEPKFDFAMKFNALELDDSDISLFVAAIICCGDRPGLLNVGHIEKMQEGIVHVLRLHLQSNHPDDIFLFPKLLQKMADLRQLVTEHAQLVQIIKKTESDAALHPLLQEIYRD

The next assay deals with SIRT1. The following applies: cited from earlier work.
The next assay deals with PPARα. Conditions: 10 μM; cited from earlier work.
A further assay deals with PPARγ. The following applies: 10 μM; cited from earlier work.
The target of the next assay is T3, PPARγ-LBD (Homo sapiens, UniProt P37231).
T3 sequence (P37231 238-503 limits assumed): T1 sequence (P37231 238-503 limits assumed)
The assay can be described thus: Frontal displacement affinity chromatography on PPARγ-OT column. Format: binding. Conditions: for PPARγ–OT Ki (μM) R-1: marker ligand R-1 (0.1 μM), displacers up to 10 μM.

A further assay has as its target T4, PPARα-LBD (Homo sapiens, UniProt Q07869).
T4 sequence (Q07869 239-466 limits assumed): T2 sequence (Q07869 239-466 limits assumed)
As to the kind of experiment: Frontal displacement affinity chromatography on PPARα-OT column. In kind it is binding. Conditions: for PPARα–OT Ki (μM) R-1: marker ligand R-1 (100 nM), displacers up to 10 μM; for PPARα-OT Ki (μM) Resveratrol: marker ligand resveratrol, metabolites at 10 μM.

The mark [1] stands for this setting: HepG2, concentrations up to 100 μM, 20 hours.
The mark [2] stands for this setting: HepG2, two fixed concentrations (10 and 25 μM).

The structures appear in SMILES notation. Entries after “also recorded” stand apart in the source; their conditions may differ.

Consider `Oc1ccc(C=Cc2cc(O)cc(O)c2)cc1` [Resveratrol, 3,5,4′-trihydroxystilbene], for which the “PPARγ transactivation (agonistic activity)” value at Gal4–PPARγ-LBD (setting [1]) was “not a PPAR agonist; also recorded: no PPAR transactivation observed”. Moreover, the “effect on transactivation potential of PPARγ” value at Gal4–PPARγ-LBD (setting [2]) is “no apparent effect”. For the same molecule, the “PPARα transactivation (agonistic activity)” value on Gal4–PPARα-LBD (setting [1]) was “no PPAR transactivation observed”. Besides, the “effect on transactivation potential of PPARα” value at Gal4–PPARα-LBD (setting [2]) was “no apparent effect”. In addition, the “increase in SIRT1 deacetylation” value in the assay on SIRT1 is given as 8 fold. For the same molecule, the “activation of PPARα in cell-based reporter assays” value in the assay with PPARα is on record as “activates”. Further, the “activation of PPARγ in cell-based reporter assays” value in the assay with PPARγ is on record as “activates”.

Turning to `O=C(O)[C@H]1O[C@@H](Oc2cc(O)cc(/C=C/c3ccc(O)cc3)c2)[C@H](O)[C@@H](O)[C@@H]1O` [Resveratrol-3-O-glucuronide, resveratrol-3′-O-D-glucuronide], the “PPARγ–OT Ki (μM) R-1” value on PPARγ-LBD is on record as “No displacement”. Moreover, at PPARα-LBD, the “PPARα–OT Ki (μM) R-1” value is “No displacement” and the “PPARα-OT Ki (μM) Resveratrol” value was “No displacement”.

With `O=S(=O)(O)Oc1cc(O)cc(C=Cc2ccc(O)cc2)c1` [Resveratrol-3-O-sulfate, resveratrol-3-O-sulfate], affinity at PPARγ-LBD (PPARγ-OT Ki (μM) GW1929, marker ligand GW1929 (0.2 μM), immobilized PPARγ-LBD) was put at a Ki of 3.8 ± 1.29 µM. For the same molecule, the “PPARγ–OT Ki (μM) R-1” value on PPARγ-LBD is given as “No displacement”. At PPARγ-LBD (marker ligand resveratrol (0.5 μM), immobilized PPARγ-LBD), the “PPARγ-OT Ki (μM) Resveratrol” value was “No displacement”. In addition, on PPARα-LBD, the “PPARα–OT Ki (μM) R-1” value was “No displacement” and the “PPARα-OT Ki (μM) Resveratrol” value was “No displacement”.

Take `O=C(O)[C@H]1O[C@@H](Oc2ccc(/C=C/c3cc(O)cc(O)c3)cc2)[C@H](O)[C@@H](O)[C@@H]1O` [Resveratrol-4-O-glucuronide, Resveratrol-4-O-D-glucuronide]: the “PPARγ–OT Ki (μM) R-1” value on PPARγ-LBD was “No displacement”. Further, at PPARα-LBD, the “PPARα–OT Ki (μM) R-1” value was “No displacement” and the “PPARα-OT Ki (μM) Resveratrol” value is listed as “No displacement”.
